Key:
Settings in all cases: exposure time: 90 min
[1] = tested on: 1118 (donor line of iPSC-derived cardiomyocytes); assay: POD (EC95) for loss of peak frequency (asystole) vs vehicle; higher = less potent (higher point of departure)
In short: (§1)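 Points of departure specific to each donor were obtained from hierarchical Bayesian Hill fits to vehicle-normalised beat frequency, decay-to-rise ratio or peak frequency. Thresholds were set at 5% change, or 95% loss in the case of peak frequency. The cells were human iPSC-derived cardiomyocytes from 16 donors, exposed for 90 min at 37 °C to 0.1, 1, 10 and 100 µM (final, 0.5% DMSO), with Ca2+ flux read on a FLIPR Tetra before and after exposure.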

[2] = tested on: 1309 (donor line of iPSC-derived cardiomyocytes); assay: as above
In short: as §1

[3] = tested on: 1392 (donor line of iPSC-derived cardiomyocytes); assay: as above
In short: as §1

[4] = tested on: 1516 (donor line of iPSC-derived cardiomyocytes); assay: as above
In short: as §1

[5] = tested on: 1518 (donor line of iPSC-derived cardiomyocytes); assay: as above
In short: as §1

[6] = tested on: 1531 (donor line of iPSC-derived cardiomyocytes); assay: as above
In short: as §1

[7] = tested on: 1565 (donor line of iPSC-derived cardiomyocytes); assay: as above
In short: as §1

[8] = tested on: 1118; assay: POD (EC05) for decrease in beat frequency (negative chronotrope) vs vehicle; higher = less potent (higher point of departure)
Procedure: (§2)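 Human iPSC-derived cardiomyocytes from 16 donors were exposed for 90 min at 37 °C to each PFAS at 0.1, 1, 10 and 100 µM in 0.5% DMSO, 384-well plates. Kinetic Ca2+ flux (FLIPR) and Hoechst nuclei counts were normalised to vehicle wells and fitted with a hierarchical Bayesian Hill model to give donor-specific PODs: EC05 for beat-rate increase or decrease and for decay-to-rise ratio increase (QT proxy), EC95 for peak-frequency loss (asystole), EC10 for total cell number loss. 0.03 µM is the lower bound.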

[9] = tested on: 11235 (donor line of iPSC-derived cardiomyocytes); assay: as above
Procedure: as §2

[10] = tested on: 1309; assay: as above
Procedure: as §2

[11] = tested on: 1368 (donor line of iPSC-derived cardiomyocytes); assay: as above
Procedure: as §2

[12] = tested on: 1516; assay: as above
Procedure: as §2

[13] = tested on: 1518; assay: as above
Procedure: as §2

[14] = tested on: 1531; assay: as above
Procedure: as §2

[15] = tested on: 1535 (donor line of iPSC-derived cardiomyocytes); assay: as above
Procedure: as §2

[16] = tested on: 1565; assay: as above
Procedure: as §2

[17] = tested on: 20032 (donor line of iPSC-derived cardiomyocytes); assay: as above
Procedure: as §2

[18] = tested on: 20084 (donor line of iPSC-derived cardiomyocytes); assay: as above
Procedure: as §2

[19] = tested on: 30145 (donor line of iPSC-derived cardiomyocytes); assay: as above
Procedure: as §2

[20] = tested on: 30171 (donor line of iPSC-derived cardiomyocytes); assay: as above
Procedure: as §2

| Compound | POD vs vehicle [1] | POD vs vehicle [2] | POD vs vehicle [3] | POD vs vehicle [4] | POD vs vehicle [5] | POD vs vehicle [6] | POD vs vehicle [7] | POD vs vehicle [8] | POD vs vehicle [9] | POD vs vehicle [10] | POD vs vehicle [11] | POD vs vehicle [12] | POD vs vehicle [13] | POD vs vehicle [14] | POD vs vehicle [15] | POD vs vehicle [16] | POD vs vehicle [17] | POD vs vehicle [18] | POD vs vehicle [19] | POD vs vehicle [20] |
| --- | --- | --- | --- | --- | --- | --- | --- | --- | --- | --- | --- | --- | --- | --- | --- | --- | --- | --- | --- | --- |
| O=C(CC(=O)C(F)(F)C(F)(F)F)C(F)(F)F [3H,3H-Perfluoro-2,4-hexanedione] | 80.5 µM | > 100 µM | > 100 µM | > 100 µM | > 100 µM | > 100 µM | > 100 µM | 24.6 µM | 24.9 µM | > 100 µM | > 100 µM | 45.3 µM | > 100 µM | > 100 µM | > 100 µM | > 100 µM | > 100 µM | > 100 µM | > 100 µM | 23.5 µM |
| O=C(O)C(F)(F)C(F)(F)C(F)(F)F [Perfluorobutanoic_acid] | > 100 µM | > 100 µM | > 100 µM | > 100 µM | > 100 µM | > 100 µM | > 100 µM | > 100 µM | > 100 µM | > 100 µM | > 100 µM | > 100 µM | > 100 µM | > 100 µM | > 100 µM | > 100 µM | > 100 µM | > 100 µM | > 100 µM | > 100 µM |
| O=S(=O)(O)CCC(F)(F)C(F)(F)C(F)(F)C(F)(F)F [4:2 Fluorotelomer sulfonic acid] | > 100 µM | > 100 µM | > 100 µM | > 100 µM | > 100 µM | > 100 µM | > 100 µM | > 100 µM | > 100 µM | > 100 µM | > 100 µM | > 100 µM | > 100 µM | > 100 µM | > 100 µM | > 100 µM | > 100 µM | > 100 µM | > 100 µM | > 100 µM |
| O=C(O)C(F)(F)OC(F)(F)C(F)(F)OC(F)(F)C(F)(F)OC(F)(F)C(F)(F)C(F)(F)C(F)(F)F [Perfluoro-3,6,9-trioxatridecanoic_acid] | 63.7 µM | > 100 µM | > 100 µM | 84.8 µM | > 100 µM | 11.4 µM | > 100 µM | 18.3 µM | 23.1 µM | > 100 µM | > 100 µM | 22.2 µM | > 100 µM | 3.38 µM | 79.4 µM | > 100 µM | 42 µM | 77.9 µM | > 100 µM | 20.7 µM |

From the supplement of paper PMC11368000
